Measurements as given in patent publication US12098145B2 (Libra Therapeutics, Inc., priority 2022, dated 2024).

What follows are compounds tested against T1, TRPML1 (Homo sapiens, UniProt Q9GZU1) (assay: Cellular TRPML1 assay (FLIPR, GCaMP6f calcium read-out)). Details: HEKT-REx/GCaMP6f/TRPML1 cells, FLIPR TETRA, kinetic response over 300 seconds; read-out: TRPML1 FLIPR pEC50 (converted).
T1 construct: expressed in transfected cells; host or cells: HEK T-REx cells stably expressing GCaMP6f and TRPML1
Format: cell-based
Experimental: Example A: Cellular TRPML1 Assay
The final clone for the TRPML1 assay is HEKT-REx/GCaMP6f/TRPML1. GCaMP6f is a genetically encoded calcium indicator that is stably expressed in this cell line and used as a fluorescent read-out.
Experiments were performed in 384 MTP format. Cells are seeded at 15000 cells/well in 20 μl/well of Optimem+0.5% FBS without selection antibiotics. Twenty-four hours later, cells are assayed for the response to various compounds using the Ca^2+ sensitive GCaMP6f protein stably expressed in the cells as readout.
The experiment was performed in a 384-well format according to the following procedures: • 24 h after seeding, the cells were pre-incubated at room temperature for about 10 min. • Started the experiment at the FLIPR^TETRA by injecting 10 μL/w of 3× concentrated test compounds and controls in Ca^2+ free Tyrode's buffer. Monitored the kinetic response over a period of 300 seconds. • Final DMSO concentration: 0.5%
Data from FLIPR^TETRA measurements were analyzed with the Genedata Screener© software.

T1 sequence (Q9GZU1 whole entry): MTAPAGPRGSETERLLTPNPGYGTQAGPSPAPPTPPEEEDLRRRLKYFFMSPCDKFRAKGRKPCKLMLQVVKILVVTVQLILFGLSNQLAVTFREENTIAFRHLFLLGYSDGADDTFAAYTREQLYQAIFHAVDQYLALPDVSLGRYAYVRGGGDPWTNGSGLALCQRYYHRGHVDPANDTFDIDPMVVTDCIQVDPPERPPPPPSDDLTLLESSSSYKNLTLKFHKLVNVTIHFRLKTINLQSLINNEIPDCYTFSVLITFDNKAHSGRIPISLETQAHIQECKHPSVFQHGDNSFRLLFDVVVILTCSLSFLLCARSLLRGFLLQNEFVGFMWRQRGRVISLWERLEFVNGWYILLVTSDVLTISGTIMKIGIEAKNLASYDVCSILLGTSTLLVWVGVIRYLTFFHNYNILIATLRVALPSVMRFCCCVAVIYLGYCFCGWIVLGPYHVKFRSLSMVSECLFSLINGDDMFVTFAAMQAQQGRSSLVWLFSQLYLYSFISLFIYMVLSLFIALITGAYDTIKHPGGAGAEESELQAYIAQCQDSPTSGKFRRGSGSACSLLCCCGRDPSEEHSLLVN

| EC50 [µM] | SMILES |
| --- | --- |
| 1 to 10 | O=C(Nc1ccc(OC2CC3C(C2)C3(F)F)c(F)c1)c1nc(N2CCCC2)oc1CC(F)(F)F (stereo not drawn) [Example 46, N-[4-({6,6-difluorobicyclo[3.1.0]hexan-3-yl}oxy)-3-fluorophenyl]-2-(pyrrolidin-1-yl)-5-(2,2,2-trifluoroethyl)oxazole-4-carboxamide] |
| 1 to 10 | O=C(Nc1ccc(O[C@@H]2COCC2(F)F)c(F)c1)c1nc(N2CCCC2)oc1CC(F)(F)F [Example 49, (R)—N-(4-((4,4-difluorotetrahydrofuran-3-yl)oxy)-3-fluorophenyl)-2-(pyrrolidin-1-yl)-5-(2,2,2-trifluoroethyl)oxazole-4-carboxamide] |
| 1 to 10 | O=C(Nc1ccc(OC2CCC3CC32)c(F)c1)c1nc(N2CCCC2)oc1CC(F)(F)F (stereo not drawn) [Example 51, N-(4-{bicyclo[3.1.0]hexan-2-yloxy}-3-fluorophenyl)-2-(pyrrolidin-1-yl)-5-(2,2,2-trifluoroethyl)oxazole-4-carboxamide] |
| 1 to 10 | O=C(Nc1ccc(OC2CCCC23CC3)c(F)c1)c1nc(N2CCCC2)oc1CC(F)(F)F (stereo not drawn) [Example 52, N-(3-fluoro-4-(spiro[2.4]heptan-4-yloxy)phenyl)-2-(pyrrolidin-1-yl)-5-(2,2,2-trifluoroethyl)oxazole-4-carboxamide] |
| 1 to 10 | O=C(Nc1ccc(OCC2CCCC2(F)F)c(F)c1)c1nc(N2CCCC2)oc1CC(F)(F)F (stereo not drawn) [Example 53, N-{4-[(2,2-difluorocyclopentyl)methoxy]-3-fluorophenyl}-2-(pyrrolidin-1-yl)-5-(2,2,2-trifluoroethyl)oxazole-4-carboxamide] |
| 1 to 10 | O=C(Nc1ccc(OC2CCOCC2)c(F)c1)c1nc(N2CCCC2)oc1CC(F)(F)F [Example 56, N-[3-fluoro-4-(oxan-4-yloxy)phenyl]-2-(pyrrolidin-1-yl)-5-(2,2,2-trifluoroethyl)oxazole-4-carboxamide] |
| 1 to 10 | O=C(Nc1ccc(OC2CCCC2)c(F)c1)c1nc(N2CCC3(CC3)C2)oc1CC(F)(F)F [Example 57, N-(4-(cyclopentyloxy)-3-fluorophenyl)-2-(5-azaspiro[2.4]heptan-5-yl)-5-(2,2,2-trifluoroethyl)oxazole-4-carboxamide] |
| 1 to 10 | O=C(Nc1ccc(OCCC(F)(F)F)c(F)c1)c1nc(N2CCCC2)oc1CC(F)(F)F [Example 58, N-(3-fluoro-4-(3,3,3-trifluoropropoxy)phenyl)-2-(pyrrolidin-1-yl)-5-(2,2,2-trifluoroethyl)oxazole-4-carboxamide] |
| 1 to 10 | CC(CC(F)(F)F)Oc1ccc(NC(=O)c2nc(N3CCCC3)oc2CC(F)(F)F)cc1F (stereo not drawn) [Example 60, N-(3-fluoro-4-((4,4,4-trifluorobutan-2-yl)oxy)phenyl)-2-(pyrrolidin-1-yl)-5-(2,2,2-trifluoroethyl) oxazole-4-carboxamide] |
| 1 to 10 | O=C(Nc1ccc(OC2CCCC2)c(F)c1)c1nc(N2C[C@H]3CCO[C@H]3C2)oc1CC(F)(F)F [Example 61, N-(4-(cyclopentyloxy)-3-fluorophenyl)-2-((3aR,6aR)-hexahydro-5H-furo[2,3-c]pyrrol-5-yl)-5-(2,2,2-trifluoroethyl)oxazole-4-carboxamide] |
| 1 to 10 | O=C(Nc1ccc(OC2CCCC2)c(F)c1)c1nc(N2CCCC2)oc1CC(F)(F)F [Example 62, N-[4-(cyclopentyloxy)-3-fluorophenyl]-2-(pyrrolidin-1-yl)-5-(2,2,2-trifluoroethyl)oxazole-4-carboxamide] |
| 1 to 10 | O=C(Nc1ccc(OC2COCC2(F)F)c(F)c1)c1nc(N2CCC3(CC3)C2)oc1CC(F)(F)F (stereo not drawn) [Example 63, N-(4-((4,4-difluorotetrahydrofuran-3-yl)oxy)-3-fluorophenyl)-2-(5-azaspiro[2.4]heptan-5-yl)-5-(2,2,2-trifluoroethyl)oxazole-4-carboxamide] |
| 1 to 10 | O=C(Nc1ccc(OC2CCCCC2)c(F)c1)c1nc(N2CCCC2)oc1CC(F)(F)F [Example 65, N-(4-(cyclohexyloxy)-3-fluorophenyl)-2-(pyrrolidin-1-yl)-5-(2,2,2-trifluoroethyl)oxazole-4-carboxamide] |
| 1 to 10 | O=C(Nc1ccc(OC2CCCOC2)c(F)c1)c1nc(N2CCCC2)oc1CC(F)(F)F (stereo not drawn) [Example 66, N-[3-fluoro-4-(oxan-3-yloxy)phenyl]-2-(pyrrolidin-1-yl)-5-(2,2,2-trifluoroethyl)oxazole-4-carboxamide] |
| 1 to 10 | O=C(Nc1ccc(OC2CCCC23CCC3)c(F)c1)c1nc(N2CCCC2)oc1CC(F)(F)F (stereo not drawn) [Example 67, N-(3-fluoro-4-{spiro[3.4]octan-5-yloxy}phenyl)-2-(pyrrolidin-1-yl)-5-(2,2,2-trifluoroethyl)oxazole-4-carboxamide] |
| 0.01 to 1 | O=C(Nc1ccc(O[C@H]2COCC2(F)F)c(F)c1)c1nc(N2CCCC2)oc1CC(F)(F)F [Example 69, (S)—N-(4-((4,4-difluorotetrahydrofuran-3-yl)oxy)-3-fluorophenyl)-2-(pyrrolidin-1-yl)-5-(2,2,2-trifluoroethyl)oxazole-4-carboxamide] |
| 0.01 to 1 | CC1(C)CN(c2nc(C(=O)Nc3cc(F)c(OC4COCC4(F)F)c(F)c3)c(CC(F)(F)F)o2)C1 (stereo not drawn) [Example 70, N-{4-[(4,4-difluorotetrahydrofuran-3-yl)oxy]-3,5-difluorophenyl}-2-(3,3-dimethylazetidin-1-yl)-5-(2,2,2-trifluoroethyl)oxazole-4-carboxamide] |
| 1 to 10 | CN(c1ccc(NC(=O)c2nc(N3CC4(C3)CC(F)(F)C4)oc2CC(F)(F)F)cc1F)C1CCCC1 [Example 79, N-{4-[cyclopentyl(methyl)amino]-3-fluorophenyl}-2-{6,6-difluoro-2-azaspiro[3.3]heptan-2-yl}-5-(2,2,2-trifluoroethyl)oxazole-4-carboxamide] |
| 1 to 10 | CN(c1ccc(NC(=O)c2nc(N3CCCC3)oc2CC(F)(F)F)cc1F)C1CC2CC2C1 (stereo not drawn) [Example 80, N-(4-{bicyclo[3.1.0]hexan-3-yl(methyl)amino}-3-fluorophenyl)-2-(pyrrolidin-1-yl)-5-(2,2,2-trifluoroethyl)oxazole-4-carboxamide] |
| 1 to 10 | CN(c1c(F)cc(NC(=O)c2nc(N3CCCC3)oc2CC(F)(F)F)cc1F)C1CCCC1(F)F (stereo not drawn) [Example 81, N-{4-[(2,2-difluorocyclopentyl)(methyl)amino]-3,5-difluorophenyl}-2-(pyrrolidin-1-yl)-5-(2,2,2-trifluoroethyl)oxazole-4-carboxamide] |
| 1 to 10 | O=C(Nc1ccc(OC2CCCC2)c(O)c1)c1nc(N2CCCC2)oc1CC(F)(F)F [Example 85, N-(4-(cyclopentyloxy)-3-hydroxyphenyl)-2-(pyrrolidin-1-yl)-5-(2,2,2-trifluoroethyl)oxazole-4-carboxamide] |
| 1 to 10 | O=C(Nc1ccc(OC2CCCC2(F)F)c(O)c1)c1nc(N2CCCC2)oc1CC(F)(F)F (stereo not drawn) [Example 86, N-{4-[(2,2-difluorocyclopentyl)oxy]-3-hydroxyphenyl}-2-(pyrrolidin-1-yl)-5-(2,2,2-trifluoroethyl)-1,3-oxazole-4-carboxamide] |
| 10 to 100 | CCN(c1ccc(NC(=O)c2nc(N3CCCC3)oc2CC(F)(F)F)cc1F)C1CCCC1(F)F (stereo not drawn) [Example 87, N-(4-((2,2-difluorocyclopentyl)(ethyl)amino)-3-fluorophenyl)-2-(pyrrolidin-1-yl)-5-(2,2,2-trifluoroethyl)oxazole-4-carboxamide] |
| 10 to 100 | NCC1CN(c2nc(C(=O)Nc3ccc(OC4CCCC4(F)F)c(F)c3)c(CC(F)(F)F)o2)C1 (stereo not drawn) [Example 88, 2-[3-(aminomethyl)azetidin-1-yl]-N-{4-[(2,2-difluorocyclopentyl)oxy]-3-fluorophenyl}-5-(2,2,2-trifluoroethyl)oxazole-4-carboxamide] |
| 1 to 10 | Cc1oc(N2CC3(C2)CC(F)(F)C3)nc1C(=O)Nc1ccc(N2CCCCC2)c(F)c1 [Example 89, 2-(6,6-difluoro-2-azaspiro[3.3]heptan-2-yl)-N-(3-fluoro-4-(piperidin-1-yl)phenyl)-5-methyloxazole-4-carboxamide] |
| 10 to 100 | Cc1oc(N2CCC3(CCC3)C2)nc1C(=O)Nc1ccc(N2CCCCC2)c(F)c1 [Example 92, N-(3-fluoro-4-(piperidin-1-yl)phenyl)-5-methyl-2-(6-azaspiro[3.4]octan-6-yl)oxazole-4-carboxamide] |
| 10 to 100 | Cc1oc(N2CCCC2CO)nc1C(=O)Nc1ccc(N2CCCCC2)c(F)c1 (stereo not drawn) [Example 93, N-(3-fluoro-4-(piperidin-1-yl)phenyl)-2-(2-(hydroxymethyl)pyrrolidin-1-yl)-5-methyloxazole-4-carboxamide] |
| 10 to 100 | Cc1oc(N2CCN(C3CC3)CC2)nc1C(=O)Nc1ccc(N2CCCCC2)c(F)c1 [Example 94, 2-(4-cyclopropylpiperazin-1-yl)-N-(3-fluoro-4-(piperidin-1-yl)phenyl)-5-methyloxazole-4-carboxamide] |
| 10 to 100 | Cc1oc(NC2CCCC23CCCO3)nc1C(=O)Nc1ccc(N2CCCCC2)c(F)c1 (stereo not drawn) [Example 95, 2-((1-oxaspiro[4.4]nonan-6-yl)amino)-N-(3-fluoro-4-(piperidin-1-yl)phenyl)-5-methyloxazole-4-carboxamide] |

| SMILES | EC50 [µM] |
| --- | --- |
| CCC(C)Oc1ccc(NC(=O)c2nc(N3CCCC3)oc2CC(F)(F)F)cc1F (stereo not drawn) [Example 59, N-(4-(sec-butoxy)-3-fluorophenyl)-2-(pyrrolidin-1-yl)-5-(2,2,2-trifluoroethyl)oxazole-4-carboxamide] | 1 to 10 |
